Assay results reported in ChEMBL document CHEMBL1201862, “PubChem BioAssay data set” (2004).
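Cultured in 96-well plates, cells were exposed to test compound for 48 hours across five concentrations. Abbreviation: GI50, concentration required for 50% inhibition of growth.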 Activity calls are given as the source filed them. Rule as the data show it: active = GI50 up to about 1.1 µM and inactive = higher.

Tests used:
Test in all cases: inhibition of tumour cell growth, NCI panel, 48 h
[1] = tested on: SF-539
[2] = tested on: SK-MEL-5
[3] = tested on: IGROV-1
[4] = tested on: TK-10
[5] = tested on: NCI-H226
[6] = tested on: MOLT-4
[7] = tested on: SF-295
[8] = tested on: OVCAR-4
[9] = tested on: CAKI-1
[10] = tested on: UO-31
[11] = tested on: Malme-3M
[12] = tested on: U-251
[13] = tested on: SW-620
[14] = tested on: A549
[15] = tested on: HCT-116
[16] = tested on: SNB-75
[17] = tested on: SK-MEL-2
[18] = tested on: LOX IMVI
[19] = tested on: OVCAR-5
[20] = tested on: RPMI-8226

Row | Structure (SMILES) | GI50 [1] | GI50 [2] | GI50 [3] | GI50 [4] | GI50 [5] | GI50 [6] | GI50 [7] | GI50 [8] | GI50 [9] | GI50 [10] | GI50 [11] | GI50 [12] | GI50 [13] | GI50 [14] | GI50 [15] | GI50 [16] | GI50 [17] | GI50 [18] | GI50 [19] | GI50 [20]
1 | COC(=O)/C=C(\C)CCC1SC1(C)C (stereo unspecified) | > 100 µM (inactive) | > 100 µM (inactive) | > 100 µM (inactive) | > 100 µM (inactive) | > 100 µM (inactive) | > 100 µM (inactive) | > 100 µM (inactive) | > 100 µM (inactive) | > 100 µM (inactive) | > 100 µM (inactive) | > 100 µM (inactive) | > 100 µM (inactive) | 77.3 µM (inactive) | > 100 µM (inactive) | > 100 µM (inactive) | > 100 µM (inactive) | > 100 µM (inactive) | > 100 µM (inactive) | > 100 µM (inactive) | > 100 µM (inactive)
2 | COc1cccc(NC(=O)CC(=O)n2nc(-c3ccccc3)c(/N=N/c3ccc(Cl)cc3)c2-c2ccccc2)c1 | 26.6 µM (inactive) | 16.8 µM (inactive) | 7.55 µM (inactive) | 64.1 µM (inactive) | 20.3 µM (inactive) | 9.84 µM (inactive) | 12.9 µM (inactive) | 36.4 µM (inactive) | 36.6 µM (inactive) | 10.2 µM (inactive) | 13.7 µM (inactive) | 7.87 µM (inactive) | 36.1 µM (inactive) | 26.1 µM (inactive) | 19.4 µM (inactive) | 42.8 µM (inactive) | 21.5 µM (inactive) | 13.2 µM (inactive) | 64.9 µM (inactive) | 12 µM (inactive)
3 | CC(=O)/N=C1/N(/C=C2\C(=O)Oc3ccccc3C2=O)C(=O)/C(=C/c2ccc(OC(C)=O)cc2)N1C | > 100 µM (inactive) | > 100 µM (inactive) | > 100 µM (inactive) | – | > 100 µM (inactive) | > 100 µM (inactive) | > 100 µM (inactive) | > 100 µM (inactive) | > 100 µM (inactive) | – | > 100 µM (inactive) | > 100 µM (inactive) | > 100 µM (inactive) | > 100 µM (inactive) | > 100 µM (inactive) | 88.9 µM (inactive) | > 100 µM (inactive) | > 100 µM (inactive) | > 100 µM (inactive) | > 100 µM (inactive)
4 | Cc1c2cccc-2ccc2c3ccccc3n(C(=O)c3ccc(Cl)cc3)c12 | > 100 µM (inactive) | > 100 µM (inactive) | > 100 µM (inactive) | > 100 µM (inactive) | > 100 µM (inactive) | > 85.5 µM (inactive) | > 100 µM (inactive) | > 100 µM (inactive) | > 100 µM (inactive) | > 100 µM (inactive) | > 100 µM (inactive) | > 100 µM (inactive) | > 100 µM (inactive) | > 100 µM (inactive) | 96.8 µM (inactive) | > 100 µM (inactive) | > 100 µM (inactive) | > 100 µM (inactive) | > 100 µM (inactive) | 45.1 µM (inactive)
5 | COc1ccc(/C(Cl)=C(\C=O)c2ccc(OC)cc2)cc1 | > 100 µM (inactive) | > 100 µM (inactive) | > 100 µM (inactive) | > 100 µM (inactive) | > 100 µM (inactive) | 7 µM (inactive) | 59.8 µM (inactive) | 48.1 µM (inactive) | > 100 µM (inactive) | > 100 µM (inactive) | > 100 µM (inactive) | 70.8 µM (inactive) | > 100 µM (inactive) | 46.9 µM (inactive) | 61.9 µM (inactive) | > 100 µM (inactive) | > 100 µM (inactive) | 80 µM (inactive) | > 100 µM (inactive) | 37.9 µM (inactive)
6 | CC(C)=CC(=O)OC1C2C(C)=CC(O)C(O)C2(C)C2C3(O)OCC24C(CC(=O)OC14)C(C)C3O (stereo unspecified) | 0.0466 µM (active) | 0.0252 µM (active) | 0.0581 µM (active) | – | 0.106 µM (active) | 0.0225 µM (active) | 0.28 µM (active) | 0.0647 µM (active) | 2.93 µM (inactive) | 2.32 µM (inactive) | 0.0286 µM (active) | 0.0519 µM (active) | 0.162 µM (active) | 1.16 µM (inactive) | 0.0361 µM (active) | 0.111 µM (active) | 0.173 µM (active) | 0.0371 µM (active) | 0.802 µM (active) | 0.0346 µM (active)
7 | CCOC(=O)/C=C1/Oc2ccccc2C1(C)O (stereo unspecified) | – | > 100 µM (inactive) | > 100 µM (inactive) | > 100 µM (inactive) | > 100 µM (inactive) | > 100 µM (inactive) | > 100 µM (inactive) | > 100 µM (inactive) | > 100 µM (inactive) | > 100 µM (inactive) | > 100 µM (inactive) | > 100 µM (inactive) | > 100 µM (inactive) | > 100 µM (inactive) | > 100 µM (inactive) | > 100 µM (inactive) | > 100 µM (inactive) | > 100 µM (inactive) | > 100 µM (inactive) | 84.5 µM (inactive)
